From PubChem BioAssay (NCI)
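Here, GI50 denotes the concentration required for 50% inhibition of growth. TGI: concentration producing complete growth inhibition.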

Tests used:
Experiment in all cases: NCI-60 cell line screen, 384-well format
[1] = system: SW-620 colon
[2] = system: LOX IMVI melanoma
[3] = system: HS 578T breast
[4] = system: SF-539 CNS
[5] = system: NCI-H322M lung
[6] = system: MCF7 breast
[7] = system: PC-3 prostate
[8] = system: UACC-257 melanoma
[9] = system: NCI-H460 NSCLC
[10] = system: MOLT-4 leukemia
[11] = system: OVCAR-5 ovarian
[12] = system: UO-31 renal
[13] = system: T-47D breast
[14] = system: M14 melanoma
[15] = system: EKVX NSCLC
[16] = system: OVCAR-4 ovarian
[17] = system: SN12C renal
[18] = system: SK-MEL-5 melanoma
[19] = system: NCI-H23 lung
[20] = system: 786-0 renal
[21] = system: SNB-19 CNS
[22] = system: U251 glioblastoma
[23] = system: CAKI-1 renal
[24] = system: RPMI-8226 leukemia
[25] = system: NCI-H226 lung
[26] = system: KM12 colon
[27] = system: DU-145 prostate
[28] = system: MDA-MB-435 melanoma
[29] = system: SNB-75 CNS
[30] = system: A549 NSCLC
[31] = system: SK-MEL-28 melanoma
[32] = system: HOP-62 NSCLC
[33] = system: K-562 leukemia
[34] = system: TK-10 renal
[35] = system: HOP-92 NSCLC
[36] = system: ACHN renal
[37] = system: NCI-H522 lung
[38] = system: OVCAR-3 ovarian
[39] = system: CCRF-CEM leukemia
[40] = system: HCT-15 colon
[41] = system: BT-549 breast
[42] = system: SK-OV-3 ovarian
[43] = system: UACC-62 melanoma
[44] = system: MDA-MB-468 breast
[45] = system: HCC-2998 colon
[46] = system: HT29 colon
[47] = system: MALME-3M melanoma
[48] = system: A498 renal
[49] = system: IGROV1 ovarian
[50] = system: SF-295 CNS
[51] = system: HCT-116 colon
[52] = system: SF-268 CNS
[53] = system: HL-60(TB) leukemia
[54] = system: NCI/ADR-RES ovarian
[55] = system: OVCAR-8 ovarian

In the case of `CC[C@@H](C)Nc1cc(C(=O)NC2CC3CCC(C2)N3c2ccc(C(=O)C3CC3)cn2)c(C)cc1C(N)=O` (some centres undefined), the GI50 [1] was 0.0262 µM, the TGI [1] was 0.0788 µM and the GI50 [2] was 0.0166 µM. The TGI [2] was 0.0317 µM, the GI50 [3] was 0.0403 µM and the TGI [3] was 0.236 µM. For the same molecule, the GI50 [4] was 0.02 µM, the TGI [4] was 0.0511 µM and the GI50 [5] was 0.0275 µM. It also gave a TGI [5] of 19.1 µM, a GI50 [6] of under 0.01 µM and a TGI [6] of 0.237 µM. The GI50 [7] was 0.0283 µM, the TGI [7] was 0.0859 µM and the GI50 [8] was 0.0621 µM. For the same molecule, the TGI [8] was 25.1 µM, the GI50 [9] was under 0.01 µM and the TGI [9] was 0.0243 µM. It also gave a GI50 [10] of under 0.01 µM, a TGI [10] of 0.0176 µM and a GI50 [11] of 0.0399 µM. It also gave a TGI [11] of 30.8 µM, a GI50 [12] of 0.0428 µM and a TGI [12] of 67.7 µM. The GI50 [13] was 0.0122 µM, the TGI [13] was 0.0528 µM and the GI50 [14] was 0.031 µM. For the same molecule, the TGI [14] was 12.8 µM, the GI50 [15] was 0.0367 µM and the TGI [15] was 17.7 µM. For the same molecule, the GI50 [16] was 6.75 µM, the TGI [16] was 23.5 µM and the GI50 [17] was 0.0248 µM. It also gave a TGI [17] of 0.0766 µM, a GI50 [18] of 0.0197 µM and a TGI [18] of 10.6 µM. It also gave a GI50 [19] of 0.0176 µM, a TGI [19] of 0.0536 µM and a GI50 [20] of 0.0332 µM. It also gave a TGI [20] of 11.7 µM, a GI50 [21] of 0.0416 µM and a TGI [21] of 17.3 µM. For the same molecule, the GI50 [22] was 0.0232 µM, the TGI [22] was 0.0656 µM and the GI50 [23] was 0.0462 µM. It also gave a TGI [23] of 19.2 µM, a GI50 [24] of 0.0251 µM and a TGI [24] of 0.0856 µM. It also gave a GI50 [25] of 0.0303 µM, a TGI [25] of 0.171 µM and a GI50 [26] of 0.0199 µM. The TGI [26] was 1.62 µM, the GI50 [27] was 0.0238 µM and the TGI [27] was 0.732 µM. It also gave a GI50 [28] of 0.0626 µM, a TGI [28] of 23.3 µM and a GI50 [29] of 0.0824 µM. For the same molecule, the TGI [29] was 0.464 µM, the GI50 [30] was under 0.01 µM and the TGI [30] was 11.7 µM. It also gave a GI50 [31] of 0.0437 µM, a TGI [31] of 21.6 µM and a GI50 [32] of 0.0295 µM. The TGI [32] was 13.7 µM, the GI50 [33] was 0.0199 µM and the TGI [33] was 0.205 µM. For the same molecule, the GI50 [34] was 0.042 µM, the TGI [34] was 32.8 µM and the GI50 [35] was 0.0285 µM. It also gave a TGI [35] of 0.0708 µM, a GI50 [36] of 0.045 µM and a TGI [36] of 28.4 µM. For the same molecule, the GI50 [37] was 0.0194 µM, the TGI [37] was 0.0463 µM and the GI50 [38] was 0.0245 µM. For the same molecule, the TGI [38] was 0.0841 µM, the GI50 [39] was under 0.01 µM and the TGI [39] was 0.037 µM. For the same molecule, the GI50 [40] was 0.0361 µM, the TGI [40] was 15 µM and the GI50 [41] was 0.0125 µM. It also gave a GI50 [42] of 0.0249 µM, a TGI [42] of 15 µM and a GI50 [43] of 0.0264 µM. It also gave a TGI [43] of 0.0811 µM, a GI50 [44] of 0.0179 µM and a TGI [44] of 0.0428 µM. For the same molecule, the GI50 [45] was under 0.01 µM, the TGI [45] was 0.0396 µM and the GI50 [46] was under 0.01 µM. The TGI [46] was 11.5 µM, the GI50 [47] was 0.0199 µM and the TGI [47] was 0.0785 µM. It also gave a GI50 [48] of 0.0233 µM, a TGI [48] of 17.6 µM and a GI50 [49] of 0.013 µM. For the same molecule, the TGI [49] was 0.0859 µM, the GI50 [50] was 0.0242 µM and the TGI [50] was 0.0653 µM. The GI50 [51] was 0.0368 µM, the TGI [51] was 14.9 µM and the GI50 [52] was 0.011 µM. For the same molecule, the TGI [52] was 0.0363 µM, the GI50 [53] was 0.0126 µM and the TGI [53] was 0.0263 µM. For the same molecule, the GI50 [54] was 0.277 µM, the TGI [54] was 0.782 µM and the GI50 [55] was 0.0206 µM. It also gave a TGI [55] of 0.0446 µM.
